What all share (format): in vivo
The subject of experiment [1] is winter wheat, Triticum aestivum cv. Hereward. The experiment in a line: Saline stress-induced senescence of wheat plants. The settings on record: 100 nM, 75 mM NaCl, assessed 25 and 30 days after planting. On the procedure: To investigate the effect of compound 6 to saline-induced senescence seeds of winter wheat, Triticum aestivum cv. Hereward, were washed under running water for 24 hours and then sown to 1 L containers on perlite soaked with water or 100 nM water solution of […]. Containers were placed in the growth chamber at 25° C. with a 16/8 h light period at 50 μmol·m^−2·s^−1. Seven days after planting the plants were treated by 75 mM NaCl solution. Plants were allowed to grow and 25 and 30 days after planting the result was assessed.

Experiment [2] has the same test system. The experiment in a line: Drought stress tolerance of wheat plants. As to conditions: 100 nM aqueous solution, drought stress last 20 days, 30 days after planting; untreated 37%. The method, then: To investigate the effect of 1-(2-methoxy-ethyl)-3-[1,2,3]thiadiazol-5-yl-urea and 1-furfuryl-[1,2,3]thiadiazol-5-yl-urea to drought-induced senescence, seeds of winter wheat, Triticum aestivum cv. Hereward, were washed under running water for 24 hours and then sown into trays with perlite (30×40 cm) and soaked by water, or 100 nM aqueous solution of 1-(2-methoxy-ethyl)-3-[1,2,3]thiadiazol-5-yl-urea or 1-furfuryl-[1,2,3]thiadiazol-5-yl-urea. The trays were placed in a growth chamber at 25° C. with 8/16 hours light/dark cycle at intensity […]. Plants were under drought stress last 20 days. 30 Days after planting it was counted how many plants survived on individual trays.

The subject of experiment [3] is spring barley (Hordeum vulgare), malting variety Bojos. Nature of the experiment: Field experiment, spring barley, foliar spraying. As to conditions: 5 μM foliar; for Grain yield: control 7.653; for Number of grains/spike: control 23.49; for Thousand grain weight: control 45.85; for Number of tillers: control 4.61; for Number of spikes/m^2: control 700.4. The source says:
The initial field experiments were done with spring barley (Hordeum vulgare), malting variety Bojos in field plots of University of Palacky in Olomouc. All field experiments were done according to criteria for Good Experimental Practices. Six repetitions (each 10 m^2) were used per one variant, sowing rate was 3.5 millions of germinated grains per hectare. Field trials were not treated by growth regulators and fungicides, except of applied compounds. Compounds 1-(2-methoxy-ethyl)-3-[1,2,3]thiadiazol-5-yl-urea and 1-(2-chloro-ethyl)-3-[1,2,3]thiadiazol-5-yl-urea were applied once in indicated time (Tillering, BBCH 23-25 or Inflorescence emergence, BBCH 51-53) by foliar spraying in concentration 5 μM. For each variant at least 50 plants were used to obtain morphology parameters. Statistical evaluation was executed in stat. program PAST v. 2.17c.

Experiment [4] shares this test system. Nature of the experiment: Field experiment, spring barley, pre-soaked seeds. The settings on record: seeds pre-soaked in 50 μM solution. The method, then:
Seeds of spring barley (Hordeum vulgare), malting variety Bojos were pre-soaked in 50 μM solution of compound 6 or 65 and sown as described in example 15. For each variant at least 50 plants were used to obtain morphology parameters. Statistical evaluation was executed in stat. program PAST v. 2.17c.

For experiment [5], the system named is winter oilseed rape. The experiment in a line: Field experiment, winter oilseed rape, foliar spray. The settings on record: 25 μM foliar spray, BBCH 50. The method, then: (§1) All field experiments were done according to criteria for Good Experimental Practices. Six repetitions (10 m^2 each) were used per one variant. Field trials were not treated by growth regulators and fungicides, except of applied compound 1-furfuryl-[1,2,3]thiadiazol-5-yl-urea. N-furfuryl-N′-1,2,3-thiadiazol-5-yl-urea was applied once at the precise time (extension growth BBCH 50), by foliar spray at a concentration of 25 μM. For each variant at least 50 plants were used to obtain morphology parameters. Statistical evaluation was executed in stat. program PAST v. 2.17c.

Experiment [6] has as its system spring barley. The experiment in a line: Field experiments, spring barley, years 2014 and 2015, foliar spray. The method, then:
as §1
All field experiments were done according to criteria for Good Experimental Practices as described in example 17. N-furfuryl-N′-1,2,3-thiadiazol-5-yl-urea was applied once at the precise time (extension growth BBCH 50), by foliar spray at a concentration of 25 μM in a year 2014 and at a concentration of 5 μM in a year 2015. For each variant at least 50 plants were used to obtain morphology parameters. Statistical evaluation was executed in stat. program PAST v. 2.17c.

The mark [7] stands for this setting: Inflorescence emergence, BBCH 51-53.
[8] abbreviates: Tillering, BBCH 23-25, listed as compound 6.

Marks after values point to notes of the source that are not given here.

With `COCCNC(=O)Nc1cnns1` [Compound 6, 1-(2-methoxy-ethyl)-3-[1,2,3]thiadiazol-5-yl-urea], the “effect on saline stress-induced senescence (in words)” value in experiment [1] is on record as “significantly delays stress-induced senescence”. This compound had a plants survived in experiment [2] of 82%. Further, in experiment [3] (setting [7]), the “Grain yield, % of control” value came to 103.6%; the “Number of grains/spike, % of control” value came out at 99.5%; the “Thousand grain weight, % of control” value is 102.0%; the Grain yield was determined as 7.927 t/ha. For the same compound, in experiment [3] (setting [7]), the Number of grains/spike is 23.37 and the Thousand grain weight was found to be 46.77 g. Further, in experiment [3] (Tillering, BBCH 23-25), the “Grain yield, % of control” value was found to be 111.3%; the “Number of grains/spike, % of control” value turned out to be 103.3%; the “Number of spikes/m^2, % of control” value is recorded as 110.3* %; the “Number of tillers, % of control” value was 115.7* %. Further, in experiment [3] (Tillering, BBCH 23-25), the “Thousand grain weight, % of control” value came to 102.9%; the Number of tillers is reported as 5.3*; the Grain yield is given as 8.517 t/ha; the Number of grains/spike was found to be 24.27. In addition, in experiment [3] (Tillering, BBCH 23-25), the Thousand grain weight is listed as 47.18 g and the “Number of spikes/m^2” value is recorded as 772.4*. In addition, in experiment [3] (setting [8]), the “Number of spikes/m^2, % of control” value came to 110.3% and the “Number of tillers, % of control” value was determined as 115.7%. For the same compound, the “grain yield compared to untreated control” value in experiment [4] was 107.3%.
With `O=C(NCCCl)Nc1cnns1` [Compound 65, 1-(2-Chloro-ethyl)-3-[1,2,3]thiadiazol-5-yl-urea], in experiment [3] (setting [7]), the “Grain yield, % of control” value is listed as 109.7%; the “Number of grains/spike, % of control” value worked out at 102.9%; the “Thousand grain weight, % of control” value is recorded as 100.2%; the Grain yield came to 8.398 t/ha. In experiment [3] (setting [7]), the Number of grains/spike was 24.17 and the Thousand grain weight is reported as 45.96 g. In addition, in experiment [3] (Tillering, BBCH 23-25), the “Grain yield, % of control” value is recorded as 109.3%; the “Number of grains/spike, % of control” value is listed as 103.9%; the “Number of spikes/m^2, % of control” value was 109.2* %; the “Number of tillers, % of control” value was 109.2%. In experiment [3] (Tillering, BBCH 23-25), the “Thousand grain weight, % of control” value is recorded as 99.0%; the Number of tillers is given as 5.0; the Grain yield turned out to be 8.362 t/ha; the Number of grains/spike stood at 24.42. Besides, in experiment [3] (Tillering, BBCH 23-25), the Thousand grain weight is listed as 45.35 g and the “Number of spikes/m^2” value is on record as 764.8*. Besides, the “Number of spikes/m^2, % of control” value in experiment [3] (Tillering, BBCH 23-25, listed as compound 65) turned out to be 109.2%. The “grain yield compared to untreated control” value in experiment [4] worked out at 109.0%.
On to `O=C(NCc1ccco1)Nc1cnns1` [Compound 84, N-furfuryl-N′-1,2,3-thiadiazol-5-yl-urea], for which the plants survived in experiment [2] is recorded as 71%. Further, the “WTK (weight of a thousand kernels)” value in experiment [5] (control 4.35) is 4.8 g. Besides, the Seed yield came out at 6.038 t/ha in experiment [5] (control 4.994); 8.02 t/ha in experiment [6] (Year 2014, 25 μM foliar spray, control 7.65); 7.49 t/ha in experiment [6] (Year 2015, 5 μM foliar spray, control 7.01). Besides, the “WTK, % of control” value is 110.3% in experiment [5] (listed as Comp. 84) and 100.06% in experiment [6] (Year 2014, 25 μM foliar spray). Further, the grains per ear in experiment [6] (Year 2014, 25 μM foliar spray, control 23.5) is 24.6. Moreover, the WTK in experiment [6] (Year 2014, 25 μM foliar spray, control 45.85) is reported as 45.88 g.
